Assay results taken from patent US20150315188A1, “COMPOUNDS AND METHODS FOR TREATMENT OF HYPERTENSION” (MEDIVATION TECHNOLOGIES, INC., priority 2012, published 2015).
One block for each compound: values may come before it.

Key:
Set-up in all cases: purchased Milipore (Millipore)
[1] = molecular target: T1, Human adrenergic α2B receptor (Homo sapiens, UniProt P18089); assay: Radioligand binding, adrenergic α2B (Protocol Group B); conditions: Protocol Group B; for Percentage inhibition of ligand binding, Adrenergic α2B (10 nM) / inhibition at 0.01 µM: 10 nM compound; for Percentage inhibition of ligand binding, Adrenergic α2B (10 nM): 0.01 µM; for Percentage inhibition of ligand binding, Adrenergic α2B (30 nM) / inhibition at 0.03 µM: 30 nM compound; for Percentage inhibition of ligand binding, Adrenergic α2B (30 nM): 0.03 µM; for Percentage inhibition of ligand binding, Adrenergic α2B (0.1 μM) / inhibition at 0.1 µM: 0.1 μM compound; for inhibition at 0.01 µM: read-out: Percentage inhibition of ligand binding, Adrenergic α2B (10 nM); for inhibition at 0.03 µM: read-out: Percentage inhibition of ligand binding, Adrenergic α2B (30 nM); for inhibition at 0.1 µM: read-out: Percentage inhibition of ligand binding, Adrenergic α2B (0.1 μM)
T1 sequence (P18089 1-450): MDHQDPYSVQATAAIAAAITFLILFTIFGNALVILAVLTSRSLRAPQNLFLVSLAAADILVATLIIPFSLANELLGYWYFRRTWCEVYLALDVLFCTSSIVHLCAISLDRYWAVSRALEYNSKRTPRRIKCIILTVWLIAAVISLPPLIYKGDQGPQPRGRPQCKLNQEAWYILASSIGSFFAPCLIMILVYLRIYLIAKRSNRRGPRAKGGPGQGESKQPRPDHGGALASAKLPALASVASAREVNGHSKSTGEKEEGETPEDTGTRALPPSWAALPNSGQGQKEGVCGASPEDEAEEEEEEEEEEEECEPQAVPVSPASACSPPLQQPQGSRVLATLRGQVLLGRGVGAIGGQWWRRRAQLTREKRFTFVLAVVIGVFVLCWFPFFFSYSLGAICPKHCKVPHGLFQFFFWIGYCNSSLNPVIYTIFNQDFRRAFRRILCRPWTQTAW
How it was run: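 Recombinant human α2B receptor membranes incubated with compounds in 50 mM Tris-HCl pH 7.4, 5 mM MgCl2, 1 mM CaCl2, 0.2% BSA, 1% DMSO vehicle. Non-specific binding defined with 10 μM rauwolscine. Values are percent inhibition of specific binding or estimated Ki.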

[2] = molecular target: T2, Human adrenergic α2A receptor (Homo sapiens, UniProt P08913); assay: Radioligand binding, adrenergic α2A (Protocol Group B); conditions: Protocol Group B; for Percentage inhibition of ligand binding, Adrenergic α2A (0.1 μM) / inhibition at 0.1 µM: 0.1 μM compound; for Percentage inhibition of ligand binding, Adrenergic α2A (0.3 μM) / inhibition at 0.3 µM: 0.3 μM compound; for inhibition at 0.1 µM: read-out: Percentage inhibition of ligand binding, Adrenergic α2A (0.1 μM); for inhibition at 0.3 µM: read-out: Percentage inhibition of ligand binding, Adrenergic α2A (0.3 μM)
T2 sequence (P08913 1-465): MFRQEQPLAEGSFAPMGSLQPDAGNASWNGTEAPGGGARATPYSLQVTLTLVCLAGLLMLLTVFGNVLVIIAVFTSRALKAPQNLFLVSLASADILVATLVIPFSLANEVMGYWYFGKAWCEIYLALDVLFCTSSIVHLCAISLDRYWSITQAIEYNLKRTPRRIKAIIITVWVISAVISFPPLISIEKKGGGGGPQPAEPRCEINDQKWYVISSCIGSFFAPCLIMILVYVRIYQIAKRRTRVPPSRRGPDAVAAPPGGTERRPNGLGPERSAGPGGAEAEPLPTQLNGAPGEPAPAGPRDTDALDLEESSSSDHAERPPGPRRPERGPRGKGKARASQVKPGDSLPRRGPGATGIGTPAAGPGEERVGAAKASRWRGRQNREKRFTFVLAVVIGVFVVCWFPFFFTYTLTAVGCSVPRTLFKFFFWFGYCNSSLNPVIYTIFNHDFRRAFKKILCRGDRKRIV
How it was run: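 Membranes from recombinant cells expressing the receptor, in 50 mM Tris-HCl pH 7.4 with 5 mM MgCl2, 1 mM CaCl2, 0.2% BSA; compounds incubated with 2 nM [^3H]MK-912 for 60 min at 25° C. Nonspecific binding defined by 10 μM rauwolscine; filtration, counting; percent inhibition of specific binding, or estimated Ki.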

[3] = molecular target: T3, Human adrenergic α1B receptor (Homo sapiens, UniProt P35368); assay: Radioligand binding, adrenergic α1B (Protocol Group B); conditions: Protocol Group B; for Percentage inhibition of ligand binding, Adrenergic α1B (0.1 μM) / inhibition at 0.1 µM: 0.1 μM compound; for Percentage inhibition of ligand binding, Adrenergic α1B (0.3 μM) / inhibition at 0.3 µM: 0.3 μM compound; for inhibition at 0.1 µM: read-out: Percentage inhibition of ligand binding, Adrenergic α1B (0.1 μM); for inhibition at 0.3 µM: read-out: Percentage inhibition of ligand binding, Adrenergic α1B (0.3 μM)
T3 sequence (P35368 1-520): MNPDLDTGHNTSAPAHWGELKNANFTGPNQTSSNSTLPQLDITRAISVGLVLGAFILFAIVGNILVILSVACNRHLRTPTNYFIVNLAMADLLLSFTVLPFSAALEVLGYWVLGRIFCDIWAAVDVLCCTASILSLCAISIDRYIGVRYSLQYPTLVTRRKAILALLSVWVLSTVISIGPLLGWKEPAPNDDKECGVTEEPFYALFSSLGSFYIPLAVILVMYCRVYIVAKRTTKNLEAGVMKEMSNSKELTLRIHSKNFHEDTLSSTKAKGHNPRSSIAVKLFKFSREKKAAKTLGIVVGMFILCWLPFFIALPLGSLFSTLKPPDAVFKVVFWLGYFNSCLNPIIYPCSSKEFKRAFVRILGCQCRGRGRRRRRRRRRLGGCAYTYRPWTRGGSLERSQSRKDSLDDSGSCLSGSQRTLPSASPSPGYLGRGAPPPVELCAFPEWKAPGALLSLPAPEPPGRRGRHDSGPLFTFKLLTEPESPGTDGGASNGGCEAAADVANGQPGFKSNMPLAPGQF
How it was run: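 Recombinant human α1B membranes incubated with test compound and 0.3 nM [3H]prazosin, 60 min at 25 °C, in 50 mM Tris-HCl pH 7.4, 10 mM MgCl2, 1 mM EDTA; nonspecific binding with 10 μM prazosin. Filter-bound radioactivity counted; values are % inhibition of specific binding or estimated Ki.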

Compound: Cc1ccc2c(c1)c1c(n2CC(C)(O)c2cccnc2)CC2CCCN2C1 (centres unmarked) [38a]
Percentage inhibition of ligand binding, Adrenergic α2B (10 nM) [1]: −2%
Percentage inhibition of ligand binding, Adrenergic α2B (30 nM) [1]: 11%
Percentage inhibition of ligand binding, Adrenergic α2B (0.1 μM) [1]: 30%
Percentage inhibition of ligand binding, Adrenergic α2A (0.1 μM) [2]: −2%
Percentage inhibition of ligand binding, Adrenergic α2A (0.3 μM) [2]: 11%
Percentage inhibition of ligand binding, Adrenergic α1B (0.1 μM) [3]: 14%
Percentage inhibition of ligand binding, Adrenergic α1B (0.3 μM) [3]: 21%

Compound: Cc1ccc2c(c1)c1c(n2CC(C)(O)c2ccc(F)cc2)CC2CCC1N2C (single isomer, unassigned) [102d]
Percentage inhibition of ligand binding, Adrenergic α2B (10 nM) [1]: −8%
Percentage inhibition of ligand binding, Adrenergic α2B (30 nM) [1]: 6%
Percentage inhibition of ligand binding, Adrenergic α2B (0.1 μM) [1]: −8%
Percentage inhibition of ligand binding, Adrenergic α2A (0.1 μM) [2]: −8%
Percentage inhibition of ligand binding, Adrenergic α2A (0.3 μM) [2]: 4%
Percentage inhibition of ligand binding, Adrenergic α1B (0.1 μM) [3]: −1%
Percentage inhibition of ligand binding, Adrenergic α1B (0.3 μM) [3]: −5%

Compound: Cc1ccc2c(c1)c1c(n2CC(C)(O)c2cncc(F)c2)CCN(C)C1 (single isomer, unassigned) [46b]
Percentage inhibition of ligand binding, Adrenergic α2B (10 nM) [1]: 0%
Percentage inhibition of ligand binding, Adrenergic α2B (30 nM) [1]: 15%
Percentage inhibition of ligand binding, Adrenergic α2B (0.1 μM) [1]: 37%
Percentage inhibition of ligand binding, Adrenergic α2A (0.1 μM) [2]: −1%
Percentage inhibition of ligand binding, Adrenergic α2A (0.3 μM) [2]: 3%
Percentage inhibition of ligand binding, Adrenergic α1B (0.1 μM) [3]: 0%
Percentage inhibition of ligand binding, Adrenergic α1B (0.3 μM) [3]: 10%

Compound: CC(O)(Cn1c2c(c3cc(C(F)(F)F)ccc31)C1CCCN1CC2)c1cccnc1 (single isomer, unassigned) [64a]
Percentage inhibition of ligand binding, Adrenergic α2B (10 nM) [1]: 73%
Percentage inhibition of ligand binding, Adrenergic α2B (30 nM) [1]: 91%
inhibition at 0.1 µM [1]: 96%
Percentage inhibition of ligand binding, Adrenergic α2A (0.1 μM) [2]: 37%
Percentage inhibition of ligand binding, Adrenergic α2A (0.3 μM) [2]: 61%
Percentage inhibition of ligand binding, Adrenergic α1B (0.1 μM) [3]: 18%
inhibition at 0.3 µM [3]: 47%

Compound: Cc1cc(F)cc2c3c(n(CC(C)(O)c4cccnc4)c12)CCN1CCCC31 (single isomer, unassigned) [75c]
Percentage inhibition of ligand binding, Adrenergic α2B (10 nM) [1]: 90%
Percentage inhibition of ligand binding, Adrenergic α2B (30 nM) [1]: 96%
Ki ([1]; estimated Ki, read-out: Ki α2B): 0.98 nM
Percentage inhibition of ligand binding, Adrenergic α2A (0.1 μM) [2]: 67%
Percentage inhibition of ligand binding, Adrenergic α2A (0.3 μM) [2]: 84%
Ki ([2]; estimated Ki): 24.5 nM
Percentage inhibition of ligand binding, Adrenergic α1B (0.1 μM) [3]: 41%
Percentage inhibition of ligand binding, Adrenergic α1B (0.3 μM) [3]: 69%

Further lines, results first:

Percentage inhibition of ligand binding, Adrenergic α2B (10 nM) [1]: 81%
Percentage inhibition of ligand binding, Adrenergic α2B (30 nM) [1]: 95%
Percentage inhibition of ligand binding, Adrenergic α2B (0.1 μM) [1]: 100%
Percentage inhibition of ligand binding, Adrenergic α2A (0.1 μM) [2]: 59%
Percentage inhibition of ligand binding, Adrenergic α2A (0.3 μM) [2]: 79%
Percentage inhibition of ligand binding, Adrenergic α1B (0.1 μM) [3]: 77%
Percentage inhibition of ligand binding, Adrenergic α1B (0.3 μM) [3]: 91%
Compound: Cc1cc(C)c2c(c1)c1c(n2CC(C)(O)c2ccncc2)CCN2CCCC12 (centres unmarked) [compound 19, 1-(8,10-dimethyl-2,3,5,6-tetrahydro-1H-indolizino[7,8-b]indol-7(11cH)-yl)-2-(pyridin-4-yl)propan-2-ol]

Percentage inhibition of ligand binding, Adrenergic α2B (10 nM) [1]: 1%
Percentage inhibition of ligand binding, Adrenergic α2B (30 nM) [1]: −3%
Percentage inhibition of ligand binding, Adrenergic α2A (0.1 μM) [2]: 2%
Percentage inhibition of ligand binding, Adrenergic α2A (0.3 μM) [2]: −4%
Percentage inhibition of ligand binding, Adrenergic α1B (0.1 μM) [3]: 1%
Percentage inhibition of ligand binding, Adrenergic α1B (0.3 μM) [3]: 7%
Compound: Cc1cc(F)cc2c3c(n(CC(C)(O)c4ccncc4)c12)CC1CCCN1C3 (single isomer, unassigned) [78d]

inhibition at 0.01 µM [1]: 1%
inhibition at 0.03 µM [1]: 21%
inhibition at 0.1 µM [2]: -7%
inhibition at 0.3 µM [2]: -9%
inhibition at 0.1 µM [3]: -1%
inhibition at 0.3 µM [3]: 9%
Compound: Cc1ccc2c(c1)c1c(n2CC(O)c2ccc(C(=O)N3CCCC3)nc2)CCN(C)C1 (centres unmarked) [compound 96, [5-[2-(2,8-dimethyl-3,4-dihydro-1H-pyrido[4,3-b]indol-5-yl)-1-hydroxy-ethyl]-2-pyridyl]-pyrrolidin-1-yl-methanone]

inhibition at 0.01 µM [1]: 50%
inhibition at 0.03 µM [1]: 65%
inhibition at 0.1 µM [1]: 83%
inhibition at 0.1 µM [2]: 33%
inhibition at 0.3 µM [2]: 50%
inhibition at 0.1 µM [3]: 3%
inhibition at 0.3 µM [3]: 32%
Compound: Cc1ccc2c(c1)c1c(n2CC(C)(O)c2ccc(N)nc2)CCN(C)C1 (centres unmarked) [compound 47, 2-(6-aminopyridin-3-yl)-1-(2,8-dimethyl-3,4-dihydro-1H-pyrido[4,3-b]indol-5(2H)-yl)propan-2-ol]

Percentage inhibition of ligand binding, Adrenergic α2B (30 nM) [1]: 22%
Percentage inhibition of ligand binding, Adrenergic α2A (0.1 μM) [2]: 15%
Percentage inhibition of ligand binding, Adrenergic α1B (0.1 μM) [3]: 28%
Compound: Cc1ccc2c(c1)c1c(n2CC(C)(O)c2ccc(F)cc2)CN2CCC1C2 (single isomer, unassigned) [134d]

Percentage inhibition of ligand binding, Adrenergic α2B (10 nM) [1]: −16%
Percentage inhibition of ligand binding, Adrenergic α2B (30 nM) [1]: −4%
Percentage inhibition of ligand binding, Adrenergic α2A (0.1 μM) [2]: −14%
Percentage inhibition of ligand binding, Adrenergic α2A (0.3 μM) [2]: −3%
Percentage inhibition of ligand binding, Adrenergic α1B (0.1 μM) [3]: −20%
Percentage inhibition of ligand binding, Adrenergic α1B (0.3 μM) [3]: −7%
Compound: Cc1cc(Cl)c2c(c1)c1c(n2CC(C)(O)c2ccncc2)CCN2CCCC12 (single isomer, unassigned) [91c]

Percentage inhibition of ligand binding, Adrenergic α2B (30 nM) [1]: 100%
Percentage inhibition of ligand binding, Adrenergic α2A (0.1 μM) [2]: 89%
Percentage inhibition of ligand binding, Adrenergic α1B (0.1 μM) [3]: 68%
Compound: Cc1cc(Br)c2c(c1)c1c(n2CC(O)c2ccncc2)CCN2CCCC12 (single isomer, unassigned) [145b]
